The values below come from ChEMBL document CHEMBL1141296, “Brunneins A-C, beta-carboline alkaloids from Cortinarius brunneus” (J Nat Prod, 2007).

Experiment [1] deals with Butyrylcholinesterase (Equus caballus) (UniProt Q9N1N9). Put plainly: Inhibition of equine BChE at 100 uM by Ellman's method.
In experiment [2] the test system is PC-3. Put plainly: Cytotoxicity against human PC3 cells upto 100 uM after 24 hrs by XTT method. The format is functional, cell-based. On the technique in general: Tetrazolium dyes change colour on reduction, which living cells bring about.
In experiment [3] the target is T1, Acetylcholinesterase (Bos taurus) (UniProt P23795).
T1 sequence (whole entry): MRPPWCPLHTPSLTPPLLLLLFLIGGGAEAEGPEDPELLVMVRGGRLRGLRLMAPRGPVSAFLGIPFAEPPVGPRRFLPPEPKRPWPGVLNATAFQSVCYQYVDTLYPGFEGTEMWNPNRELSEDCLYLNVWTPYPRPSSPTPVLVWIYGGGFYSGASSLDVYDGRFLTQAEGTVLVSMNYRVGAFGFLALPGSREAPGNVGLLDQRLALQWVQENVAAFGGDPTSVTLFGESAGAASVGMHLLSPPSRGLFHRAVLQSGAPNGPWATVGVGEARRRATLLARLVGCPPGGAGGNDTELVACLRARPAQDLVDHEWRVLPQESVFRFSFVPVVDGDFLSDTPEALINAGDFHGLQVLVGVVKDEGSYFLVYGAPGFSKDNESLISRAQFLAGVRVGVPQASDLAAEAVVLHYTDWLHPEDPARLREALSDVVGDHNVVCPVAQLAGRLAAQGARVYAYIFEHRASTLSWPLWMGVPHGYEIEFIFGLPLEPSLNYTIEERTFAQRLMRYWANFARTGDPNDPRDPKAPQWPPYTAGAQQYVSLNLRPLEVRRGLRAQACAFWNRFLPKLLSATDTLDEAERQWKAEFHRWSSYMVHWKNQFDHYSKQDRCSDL
Put plainly: Inhibition of bovine AChE at 100 uM by Ellman's method. Background: In Ellman's method for cholinesterases, released thiocholine reacts with DTNB.

Where only a bound is given, the exact number is not on record here.

Broadly, the inhibition is the share of the control response that was lost under treatment. Consider `CC1=N[C@H](C(=O)O)Cc2c1[nH]c1cc(O)ccc21`, for which the inhibition in experiment [1] and in experiment [3] was < 50% throughout. The Activity result in experiment [2] was “Not toxic”.
